Reference: article PMC6400287 (Cell reports, 2018)

Target: T1, REV-ERBα (Homo sapiens, UniProt P20393)
T1 sequence (P20393 1-614): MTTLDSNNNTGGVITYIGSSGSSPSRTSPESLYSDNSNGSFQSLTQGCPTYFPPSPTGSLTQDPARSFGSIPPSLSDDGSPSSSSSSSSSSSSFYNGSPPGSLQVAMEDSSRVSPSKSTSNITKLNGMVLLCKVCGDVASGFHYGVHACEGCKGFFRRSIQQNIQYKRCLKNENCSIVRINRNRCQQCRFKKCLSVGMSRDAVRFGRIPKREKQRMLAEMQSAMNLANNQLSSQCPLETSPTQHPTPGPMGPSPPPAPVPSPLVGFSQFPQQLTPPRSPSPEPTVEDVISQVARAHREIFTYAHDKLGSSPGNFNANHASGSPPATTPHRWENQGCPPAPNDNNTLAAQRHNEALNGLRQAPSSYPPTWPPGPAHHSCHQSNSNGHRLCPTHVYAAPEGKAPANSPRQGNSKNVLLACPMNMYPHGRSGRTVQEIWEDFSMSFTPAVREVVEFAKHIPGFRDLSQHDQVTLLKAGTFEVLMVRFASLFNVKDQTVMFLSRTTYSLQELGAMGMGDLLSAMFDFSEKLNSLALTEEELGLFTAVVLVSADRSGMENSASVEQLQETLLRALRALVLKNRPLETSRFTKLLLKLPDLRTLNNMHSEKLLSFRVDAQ
Assay: cotransfection Il17a+CNS5 luciferase reporter assay in HEK293 cells
Assay type: cell-based

Structure (SMILES): CCOC(=O)N1CCC(CN(Cc2ccc(Cl)cc2)Cc2ccc([N+](=O)[O-])s2)C1 (stereo not shown) [SR9009]
- cotransfection Il17a+CNS5 luciferase reporter assay in HEK293 cells: Both SR9009 and SR12418 dose-dependently inhibited Il17a lucif-erase activity at REV-ERBα and REV-ERBβ
